In patent US6699892B2, “Pharmaceutically acceptable salt of amlodipine and method of preparing the same” (Yung Shin Pharmaceutical Industrial Co., Ltd., priority 2002, dated 2004):
≈ marks a conversion by molar mass, not a printed value. Like-named read-outs stand apart in the source and are kept apart here.

Columns and labels:
[1] = assay type: physicochemical; details: 3 weeks
Method: The stability of amlodipine nicotinate and amlodipine besylate was tested at 45° C. and 75° C. for 3 weeks.

[2] = Solubility in water at room temperature (saturated aqueous solution); assay type: physicochemical; details: room temperature of about 25° C.
Method: At the ambient temperature (room temperature of about 25° C.), a saturated aqueous solution of amlodipine nicotinate contains about 6.0 mg of the chemical per mL of water. In comparison, a saturated aqueous solution of amlodipine besylate contains about 2.0 mg of the chemical per mL of water.

[3] = aqueous solution
[4] = listed as amlodipine nicotinate

SMILES | Stability Test (% of Sample Purity) (3-week) 45° C. [1] | Stability Test (% of Sample Purity) (3-week) 75° C. [1] | Solubility in Water at Room Temperature [2] | pH Value [3] | Solubility in Water at Room Temperature [2, 4] | pH Value [3, 4]
CCOC(=O)C1=C(COCCN)NC(C)=C(C(=O)OC)C1c1ccccc1Cl (stereo not shown) [Amlodipine Besylate, amlodipine besylate, reference compound] | 99.6% | 97.8% | about 2.0 mg/ml | 6.09 | – | –
CCOC(=O)C1=C(COCCN)NC(C)=C(C(=O)OC)C1c1ccccc1Cl (stereo not shown) [Amlodipine Nicotinate, amlodipine nicotinate] | 99.7% | 99.2% | 6000 µg/mL (≈ 14.7 mM) | 5.34 | about 6.0 mg/ml | 5.34
